In US6251919A, “Heterocyclic substituted aniline calcium channel blockers” (Warner-Lambert, priority 1999, dated 2001):
Where two headings read alike, the source gives them in different places. Bridges are numbered along the chain shown (N, C = ends). Where no end group is shown, it is not given here.

Key:
[1] = target: T1, N-type Ca^2+ channel in IMR-32 cells (Homo sapiens, UniProt Q00975); assay: N-type Ca2+ channel blockade in IMR-32 cells (fluorescent Ca2+ indicator Indo-1); assay type: cell-based; conditions: 5 μM nitrendipine present; for inhibition at 1 µM: IMR-32, 1 μM; for inhibition at 10 µM: IMR-32, 10 μM
T1 construct: host or cells: IMR-32 (differentiated with dibutyryl cAMP and bromodeoxyuridine)
T1 sequence (Q00975 whole entry): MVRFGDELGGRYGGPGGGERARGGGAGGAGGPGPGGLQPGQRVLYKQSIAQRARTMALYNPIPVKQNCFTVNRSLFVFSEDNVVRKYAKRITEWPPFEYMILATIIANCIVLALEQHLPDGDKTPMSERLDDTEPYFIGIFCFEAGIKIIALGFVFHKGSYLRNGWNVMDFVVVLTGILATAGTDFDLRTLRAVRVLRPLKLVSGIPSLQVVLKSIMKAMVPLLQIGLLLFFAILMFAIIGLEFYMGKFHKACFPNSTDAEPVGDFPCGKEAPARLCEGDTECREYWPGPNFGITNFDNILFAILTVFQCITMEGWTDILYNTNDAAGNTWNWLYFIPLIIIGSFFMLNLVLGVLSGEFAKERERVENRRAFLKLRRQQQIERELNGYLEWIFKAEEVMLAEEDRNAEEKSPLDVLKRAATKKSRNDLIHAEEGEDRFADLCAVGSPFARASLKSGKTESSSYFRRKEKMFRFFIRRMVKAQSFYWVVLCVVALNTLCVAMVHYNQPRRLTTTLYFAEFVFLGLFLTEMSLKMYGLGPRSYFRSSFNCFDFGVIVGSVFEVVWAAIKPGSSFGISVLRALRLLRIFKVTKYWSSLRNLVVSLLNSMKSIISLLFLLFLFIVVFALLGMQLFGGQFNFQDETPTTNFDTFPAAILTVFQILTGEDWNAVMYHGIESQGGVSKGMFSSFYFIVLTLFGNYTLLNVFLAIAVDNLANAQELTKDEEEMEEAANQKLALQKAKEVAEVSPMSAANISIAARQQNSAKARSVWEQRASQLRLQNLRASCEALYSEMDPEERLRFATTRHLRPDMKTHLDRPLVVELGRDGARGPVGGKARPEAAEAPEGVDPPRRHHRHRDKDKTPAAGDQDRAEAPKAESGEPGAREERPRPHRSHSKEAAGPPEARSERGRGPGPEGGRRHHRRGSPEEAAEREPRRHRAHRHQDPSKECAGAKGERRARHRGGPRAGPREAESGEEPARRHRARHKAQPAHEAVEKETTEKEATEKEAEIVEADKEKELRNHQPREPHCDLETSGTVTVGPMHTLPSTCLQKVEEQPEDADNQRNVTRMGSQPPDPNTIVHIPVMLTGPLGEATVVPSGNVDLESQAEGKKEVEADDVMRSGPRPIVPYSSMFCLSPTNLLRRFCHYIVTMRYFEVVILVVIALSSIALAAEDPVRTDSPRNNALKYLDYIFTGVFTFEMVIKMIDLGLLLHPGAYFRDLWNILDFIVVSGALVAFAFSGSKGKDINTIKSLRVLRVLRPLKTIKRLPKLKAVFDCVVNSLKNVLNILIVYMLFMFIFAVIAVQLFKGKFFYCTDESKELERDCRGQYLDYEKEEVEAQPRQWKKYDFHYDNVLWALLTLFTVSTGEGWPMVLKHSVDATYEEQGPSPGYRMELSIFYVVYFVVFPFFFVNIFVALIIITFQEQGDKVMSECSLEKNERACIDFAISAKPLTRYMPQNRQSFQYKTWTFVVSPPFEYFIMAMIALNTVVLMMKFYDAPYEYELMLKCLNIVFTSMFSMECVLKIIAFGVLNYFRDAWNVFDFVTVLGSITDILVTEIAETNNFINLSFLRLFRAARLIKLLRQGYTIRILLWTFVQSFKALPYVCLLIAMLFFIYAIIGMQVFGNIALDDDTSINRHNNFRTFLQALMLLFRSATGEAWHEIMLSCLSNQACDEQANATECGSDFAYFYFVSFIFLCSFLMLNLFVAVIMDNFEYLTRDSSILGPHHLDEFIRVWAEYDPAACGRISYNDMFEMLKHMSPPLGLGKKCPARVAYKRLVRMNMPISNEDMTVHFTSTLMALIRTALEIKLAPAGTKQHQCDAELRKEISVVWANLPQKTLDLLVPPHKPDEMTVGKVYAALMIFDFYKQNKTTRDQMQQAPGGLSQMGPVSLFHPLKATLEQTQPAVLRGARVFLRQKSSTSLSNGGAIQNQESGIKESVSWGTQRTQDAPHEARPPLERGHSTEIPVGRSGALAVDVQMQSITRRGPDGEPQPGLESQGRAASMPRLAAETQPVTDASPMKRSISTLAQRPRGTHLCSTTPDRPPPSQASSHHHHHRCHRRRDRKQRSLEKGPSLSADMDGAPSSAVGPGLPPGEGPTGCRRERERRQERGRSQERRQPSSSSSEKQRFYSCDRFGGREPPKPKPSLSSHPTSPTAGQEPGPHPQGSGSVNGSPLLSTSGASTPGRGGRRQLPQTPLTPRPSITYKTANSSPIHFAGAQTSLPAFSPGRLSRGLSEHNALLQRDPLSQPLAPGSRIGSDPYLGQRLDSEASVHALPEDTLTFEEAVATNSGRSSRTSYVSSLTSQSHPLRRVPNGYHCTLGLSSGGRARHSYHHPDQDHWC

DBA/2 mice = assay: Audiogenic seizure (anticonvulsant) test in DBA/2 mice; assay type: in vivo; conditions: Mus musculus, intravenous, read-out: DBA/2 mice % Protection
Method: A compound of the present invention was dissolved in water using 10% (weight/volume) Emulphor (GAF Corp., Wayne, N.J.) surfactant. Substances were administered by intravenous injection into the retro-orbital venous sinus. All testing was performed fifteen minutes or forty-five minutes after drug injection. All the male mice, 3-4 weeks old were obtained from Jackson Laboratories Bar Harbour, Me. Immediately before anticonvulsant testing, mice were placed upon a wire mesh, four inches square suspended from a steel rod. The square was slowly inserted through 180 degree and mice observed for thirty seconds. Any mouse falling from the wire mesh was scored as ataxia.
Mice were placed into an enclosed acrylic plastic chamber (21 cm height, approximately 30 cm diameter) with a high-frequency speaker (4 cm diameter) in the center of the top lid. An audio signal generator (Protek model B-810) was used to produe a continuous sinusoidal tone that was swept linearly in frequency between 8 kHz and 16 kHz once each 10 msec. The average sound pressure level (SPL) during stimulation was approximately 100 dB at the floor of the chamber. Mice were placed within the chamber and allowed to acclimatize for one minute. DBA/2 mice in the vehicle-treated group responded to the sound stimulus (applied until tonic extension occurred, or for a maximum of sixty seconds) with a characteristic seizure sequence consisting of wild running followed by clonic seizures and later by tonic extension, and finally by respiratory arrest and death in 80% or more of the mice. In vehicle-treated mice, the entire sequence of seizures to respiratory arrest lasts approximately 15-20 seconds.
The incidence of all the seizure phases in the drug-treated and vehicle-treated mice was recorded, and the occurrence of tonic seizures were used for calculating anticonvulsant ED50 values by probit analysis. Mice were used only once for testing at each time and dose point.

male Swiss-Webster mice = assay: Anti-Writhing Test in Mice (AW), acetic acid; assay type: in vivo
Text: Anti-Writhing Test in Mice (AW) Test Protocol
The purpose of this test is to evaluate drugs for analgesic-like activity. The AW test determines the effect of drugs on the response to a presumed painful stimulus in mice and is used as a preliminary in vivo procedure for the identification of potential analgesic agents.
Known analgesics with low, moderate, or high efficacy in man allow mice to tolerate intra-peritoneal administration of dilute acetic acid as evidenced by lesser incidence of writhing movements. The AW test measures the nociceptive response to acetic acid in mice and provides an objective, reliable, and quantitative estimate of efficacy and potency of potential analgesic compounds. […]
Compounds are dissolved or suspended in physiological saline containing 2% Emulphor. […] Drug doses are expressed as the active moiety and are normally administered to mice (10, 30, and 100 mg/kg IP, SC, PO, or IM) in a volume of 10 mL/kg, 1 hour prior to testing; ICV doses (in μg/kg) are administered in a volume of 0.5 mL/kg, 5 minutes prior to testing. […]
Mice are treated with a dilute solution of acetic acid (0.6%, 10 mL/kg IP) which elicits writhing. […] Writhing movements (abdominal contractions, stretching of the torso and hind legs, and concave arching of the back) are counted for 5 minutes commencing 7 minutes after acetic acid administration. […]

N-type calcium channel = conditions: Bowersox et al. 1994; cited from earlier work
[2] = tested on: models of ischemia and pain; conditions: Bowersox et al. 1994; cited from earlier work

| inhibition at 1 µM [1] [%] | inhibition at 10 µM [1] [%] | Molecule | responders at 10 mg/kg (DBA/2 mice) [%] | IC50 [1] [nM] | further results |
| --- | --- | --- | --- | --- | --- |
| 51 | 92 | CC(C)=CCN(c1ccc(OCc2ccccc2)cc1)C1CCN(C(=O)C2CN(C(C)C)CCN2CCC(C)C)CC1 (stereo not drawn) [Example 15, {4-[(4-Benzyloxy-phenyl)-(3-methyl-but-2-enyl)-amino]-piperidin-1-yl}-[4-isopropyl-1-(3-methyl-butyl)-piperazin-2-yl]-methanone] | 20 | – | responders at 30 mg/kg (DBA/2 mice; 0.75 h, 30 mg/kg (45 min)): 100% |
| – | – | CC(C)=CCN(c1ccc(OCc2ccccc2)cc1)C1CCN(Cc2ccccc2)CC1 [Example 19, (4-Benzyloxy-phenyl)-(1-benzyl-piperidin4-yl)-(3-methyl-but-2-enyl)-amine] | 80 | 720 | – |
| – | – | CC(C)=CCN(c1ccc(OCc2ccccc2)cc1)C1CCN(CCC(C)O)CC1 (stereo not drawn) [Example 20, 4-{4-[(4-Benzyloxy-phenyl)-(3-methyl-but-2-enyl)-aminol]-piperidin-1-yl}-butan-2-ol] | 40 | 3000 | – |
| 64 | 107 | CC(C)=CCN(c1ccc(OCc2ccccc2)cc1)C1CCN(C(=O)[C@@H](O)CC(C)C)CC1 [Example 44, (S)-1-{4-[(4-Benzyloxy-phenyl)-(3-methyl-but-2-enyl)-amino]-piperidin-1-yl}-2-hydroxy-4-methyl-pentan-1-one] | – | – | Anti-Writhing % Protection (male Swiss-Webster mice; 10 mg/kg): 30%; Anti-Writhing % Protection (male Swiss-Webster mice; 30 mg/kg): 100%; responders at 30 mg/kg (DBA/2 mice; 30 mg/kg): 100% |
| – | – | SNX-111: selective N-type calcium channel blocker (CKGKGAKCSRLMYDCCTGSCRSGKC-NH2; disulfide 1-16, 15-25, 8-20; UniProt P05484 46-70, looked up) | – | – | N-type calcium channel blockade selectivity (N-type calcium channel): selective N-type calcium channel blocker; activity in models of ischemia and pain [2]: demonstrated activity in a number of models of ischemia and pain |

| Molecule | inhibition at 1 µM [1] [%] | inhibition at 10 µM [1] [%] | responders at 10 mg/kg (DBA/2 mice) [%] | IC50 [1] [nM] | further results |
| --- | --- | --- | --- | --- | --- |
| CC(C)=CCN(c1ccc(OCc2ccccc2)cc1)C1CCN(Cc2c[nH]cn2)CC1 [Example 8, (4-Benzyloxy-phenyl)-[1(1H-imidazol-4-ylmethyl)-piperidin-4-yl]-(3-methyl-but-2-enyl)-amine] | 16 | 71 | 60 | – | – |
